Measurements taken from PMC8272044, “5-Phenoxy Primaquine Analogs and the Tetraoxane Hybrid as Antimalarial Agents” (Molecules, 2021).
Like-named read-outs stand apart in the source and are kept apart here.

What was measured:
P. falciparum 3D7 = assay: In vitro blood antimalarial activity, malaria SYBR green I-based fluorescence (MSF) method; assay type: cell-based; settings: Plasmodium falciparum; P. falciparum 3D7, blood stage, 48 h, mean ± SD of three biological repeats
Protocol: P. falciparum strain 3D7 (wild-type drug sensitive strain) was used in this study. This parasite was maintained continuously in vitro in human O+ erythrocytes (4% hematocrit) at 37 °C under 3% CO2 and 90% N2 in RPMI 1640 culture media (Life Technologies Limited, Paisley, UK) containing 2 mM L-Glutamine, 25 mM HEPES (Sigma), pH 7.4, 2g/L NaHCO3, 40 mg/L gentamicin, 0.37 mM hypoxanthine, and supplemented with 5 g/L Albumax I (Life Technologies, Grand Island, NY, USA). Every 3 to 4 days, the parasite culture was synchronized with 5% sorbitol and transferred into complete medium with uninfected erythrocytes. In vitro antimalarial activity was determined by using the malaria SYBR green I-based fluorescence (MSF) method. Briefly, 0.09 mL of cultured 1% ring-stage synchronized parasites and 2% hematocrit were transferred to individual wells of a standard 96-well microtiter plate and in vitro culture continued for 48 h, with 0.01 mL of compound at different concentration in each well. The compounds were first dissolved in DMSO and diluted with RPMI medium to 1% DMSO. The final concentration of DMSO in each well was 0.1%, which caused no effect on the parasite viability. Following 48 h, SYBR Green I solution (0.02 µL of 10,000X SYBR Green I/100 µL of buffer solution consisted of 20 mM Tris 20, pH 7.5, 5 mM EDTA, 0.008% w/v saponin and 0.08% v/v Triton X-100) was then added to each well, and fluorescence signals were measured by spectrofluorometer at ex485/em 535 nm. […] The result of each compound was normalized with control media for the overall background subtraction as 0% and untreated parasite with 0.1% DMSO as 100% control.

[1] = Cytotoxicity by sulforhodamine B (SRB) colorimetric assay; assay type: cell-based, African green monkey; settings: African green monkey, Vero cells (kidney fibroblasts); Vero cells, 72 h, SRB, mean ± SD of three repeats
Excerpt: (§1) A cytotoxicity test of selected analogs against African green monkey kidney fibroblast (Vero cells) was obtained from Bioassay Laboratory, BIOTEC, NSTDA, Thailand. They were maintained continuously in MEM/EBSS medium (Hyclone Laboratories Inc., South Logan, UT, USA), supplemented with 10% heated fetal bovine serum (GE Healthcare, PAA Laboratories GmbH, Pasching, Austria), 2.2 g/L Sodium bicarbonate (Emsure, Merck kGaA, Darmstadt, Germany), and 1% sodium pyruvate (Sigma). […] Then, the cells were fixed with 100 µL of 10% trichloroacetic acid (Sigma) at 4 °C for 45 min, washed, and dried at room temperature overnight. […] Finally, 200 µL of 10× Tris-base was added to each well to dissolve protein-bound dye. The OD was determined at a wavelength of 510 nm. The control media was used for overall background subtraction as 0% and untreated cells as 100% control without any cytotoxic effect. The IC50 value of each compound was determined from the dose–response curve.

[2] = system: African green monkey kidney fibroblast (Vero cells); assay: as above; assay type: cell-based; settings: Vero CC50 / P. falciparum 3D7 IC50
Excerpt: as §1

hematin polymerization [3] = assay: Inhibition of hematin polymerization (heme polymerization assay); assay type: biochemical;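 for %Inh1: test concentrations in µM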;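 for %Inh2: test concentrations in µM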;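 for %Inh3: test concentrations in µM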
Protocol: The ability of the 5-phenoxy primaquine analogs to inhibit hematin polymerization was investigated using a protocol modified from the one described previously. […] After it was left standing for 15 min, Tween 20 (0.5 μM; Sigma) was added. […] The assay was performed in triplicate, and results were expressed as the percentage of inhibition relative to hemozoin formation in a negative control. The IC50 values were obtained from the sigmoidal dose–response curves using nonlinear regression curve fitting analyses with GraphPad Prism version 3.00 software. Each IC50 value is the result of at least three separate experiments.

hematin polymerization [4] = system: hematin polymerization; design: method as in PMID 10049273; settings: literature value; read-out: IC50, hematin polymerization inhibition; cited from earlier work
[5] = pH 5.0, mean ± SD of three independent repeats, read-out: IC50, inhibition of hemozoin-initiated hematin polymerization
[6] = primary data, repeat 1, read-out: IC50, heme polymerization inhibition, repeat 1
[7] = primary data, repeat 2, read-out: IC50, heme polymerization inhibition, repeat 2
[8] = primary data, repeat 3, read-out: IC50, heme polymerization inhibition, repeat 3

Row | IC50 (P. falciparum 3D7) [µM] | IC50 (hematin polymerization [3]; [5]) [µM] | SMILES | %Inh1 (hematin polymerization [3]; conc 2, repeat 1) [%] | %Inh2 (hematin polymerization [3]; conc 2, repeat 2) [%] | %Inh3 (hematin polymerization [3]; conc 2, repeat 3) [%] | %Inh1 (hematin polymerization [3]; conc 10, repeat 1) [%] | %Inh2 (hematin polymerization [3]; conc 10, repeat 2) [%] | %Inh3 (hematin polymerization [3]; conc 10, repeat 3) [%] | %Inh1 (hematin polymerization [3]; conc 50, repeat 1) [%] | %Inh2 (hematin polymerization [3]; conc 50, repeat 2) [%] | %Inh3 (hematin polymerization [3]; conc 50, repeat 3) [%] | %Inh1 (hematin polymerization [3]; conc 100, repeat 1) [%] | %Inh2 (hematin polymerization [3]; conc 100, repeat 2) [%] | %Inh3 (hematin polymerization [3]; conc 100, repeat 3) [%] | %Inh1 (hematin polymerization [3]; conc 200, repeat 1) [%] | %Inh2 (hematin polymerization [3]; conc 200, repeat 2) [%] | %Inh3 (hematin polymerization [3]; conc 200, repeat 3) [%] | %Inh1 (hematin polymerization [3]; conc 400, repeat 1) [%] | %Inh2 (hematin polymerization [3]; conc 400, repeat 2) [%] | %Inh3 (hematin polymerization [3]; conc 400, repeat 3) [%] | also measured
1 | 3.65 ± 0.39 | 102 ± 4.1 | COc1cc(NC(C)CCCN)c2ncccc2c1Oc1ccccc1 (centres unmarked) [7a, N^4-(6-Methoxy-5-phenoxyquinolin-8-yl)pentane-1,4-diamine] | 0.76 | 8.32 | 5.77 | 4.28 | 12.65 | 9.75 | 19.81 | 31.60 | 24.35 | 50.68 | 59.92 | 49.55 | 89.17 | 88.25 | 88.23 | 101.81 | 100.63 | 95.73 | CC50 at 72 h [1]: 37.5 ± 5.24 µM; SI, selectivity index = CC50 on Vero cells / IC50 in the blood stage [2]: 10.27; IC50 (hematin polymerization [3]; [6]): 105 µM; IC50 (hematin polymerization [3]; [7]): 96 µM; IC50 (hematin polymerization [3]; [8]): 104 µM
2 | 13.5 ± 1.57 | 154 ± 6.4 | COc1cc(NC(C)CCCN)c2ncccc2c1Oc1ccc(C(N)=O)cc1 (centres unmarked) [7h, 4-((8-((5-Aminopentan-2-yl)amino)-6-methoxyquinolin-5-yl)oxy)benzamide] | 6.92 | 2.87 | 14.16 | 8.33 | 17.48 | 18.60 | 22.32 | 30.21 | 30.28 | 39.91 | 44.86 | 40.80 | 66.71 | 77.84 | 84.25 | 87.23 | 92.60 | 103.26 | CC50 at 72 h [1]: > 100 µM; SI, selectivity index = CC50 on Vero cells / IC50 in the blood stage [2]: >7.41; IC50 (hematin polymerization [3]; [6]): 154 µM; IC50 (hematin polymerization [3]; [7]): 162 µM; IC50 (hematin polymerization [3]; [8]): 146 µM
3 | 7.03 ± 1.31 | 175 ± 4.3 | COc1cc(NC(C)CCCN)c2ncccc2c1Oc1ccc(Br)cc1 (centres unmarked) [7c, N^4-(5-(4-Bromophenoxy)-6-methoxyquinolin-8-yl) pentane-1,4-diamine] | 7.63 | 6.63 | 1.36 | 8.52 | 5.82 | 7.32 | 12.67 | 18.23 | 10.74 | 31.46 | 32.12 | 38.23 | 63.35 | 63.64 | 61.57 | 90.44 | 88.93 | 90.95 | CC50 at 72 h [1]: 42.2 ± 3.25 µM; SI, selectivity index = CC50 on Vero cells / IC50 in the blood stage [2]: 6.00; IC50 (hematin polymerization [3]; [6]): 170 µM; IC50 (hematin polymerization [3]; [7]): 181 µM; IC50 (hematin polymerization [3]; [8]): 175 µM
4 | 8.2 ± 0.83 | 132 ± 5.3 | COc1cc(NC(C)CCCN)c2ncccc2c1Oc1ccc(Cl)cc1 (centres unmarked) [7d, N^4-(6-Methoxy-5-(4-chlorophenoxy)quinolin-8-yl)pentane-1,4-diamine] | 7.78 | 6.26 | 2.78 | 12.08 | 17.37 | 9.55 | 28.15 | 20.53 | 25.95 | 39.02 | 49.70 | 40.32 | 81.92 | 79.27 | 75.78 | 96.57 | 99.33 | 91.32 | CC50 at 72 h [1]: 46.4 ± 5.68 µM; SI, selectivity index = CC50 on Vero cells / IC50 in the blood stage [2]: 5.66; IC50 (hematin polymerization [3]; [6]): 135 µM; IC50 (hematin polymerization [3]; [7]): 125 µM; IC50 (hematin polymerization [3]; [8]): 137 µM
5 | 4.62 ± 0.56 | 286 ± 11.9 | COc1cc(NC(C)CCCN)c2ncccc2c1Oc1ccc(C#N)cc1 (centres unmarked) [7e, 4-((8-((5-Aminopentan-2-yl)amino)-6-methoxyquinolin-5-yl)oxy)benzonitrile] | 8.32 | 3.87 | 7.94 | 3.78 | 12.84 | 9.43 | 19.32 | 16.35 | 21.70 | 30.12 | 30.64 | 17.31 | 52.26 | 55.89 | 45.17 | 78.42 | 85.27 | 69.64 | CC50 at 72 h [1]: > 100 µM; SI, selectivity index = CC50 on Vero cells / IC50 in the blood stage [2]: >21.65; IC50 (hematin polymerization [3]; [6]): 291 µM; IC50 (hematin polymerization [3]; [7]): 269 µM; IC50 (hematin polymerization [3]; [8]): 297 µM

Row | SMILES | IC50 (P. falciparum 3D7) [µM] | IC50 (hematin polymerization [3]; [5]) [µM] | %Inh1 (hematin polymerization [3]; conc 2, repeat 1) [%] | %Inh2 (hematin polymerization [3]; conc 2, repeat 2) [%] | %Inh3 (hematin polymerization [3]; conc 2, repeat 3) [%] | %Inh1 (hematin polymerization [3]; conc 10, repeat 1) [%] | %Inh2 (hematin polymerization [3]; conc 10, repeat 2) [%] | %Inh3 (hematin polymerization [3]; conc 10, repeat 3) [%] | %Inh1 (hematin polymerization [3]; conc 50, repeat 1) [%] | %Inh2 (hematin polymerization [3]; conc 50, repeat 2) [%] | %Inh3 (hematin polymerization [3]; conc 50, repeat 3) [%] | %Inh1 (hematin polymerization [3]; conc 100, repeat 1) [%] | %Inh2 (hematin polymerization [3]; conc 100, repeat 2) [%] | %Inh3 (hematin polymerization [3]; conc 100, repeat 3) [%] | %Inh1 (hematin polymerization [3]; conc 200, repeat 1) [%] | %Inh2 (hematin polymerization [3]; conc 200, repeat 2) [%] | %Inh3 (hematin polymerization [3]; conc 200, repeat 3) [%] | %Inh1 (hematin polymerization [3]; conc 400, repeat 1) [%] | %Inh2 (hematin polymerization [3]; conc 400, repeat 2) [%] | %Inh3 (hematin polymerization [3]; conc 400, repeat 3) [%] | also measured
6 | COc1cc(NC(C)CCCN)c2ncccc2c1 (centres unmarked) [PQ, primaquine bisphosphate, reference compound] | 11.3 ± 0.79 | 320 ± 12 | -2.08 | 16.17 | 4.69 | -9.33 | 8.67 | 3.70 | 12.67 | -7.00 | 5.24 | 19.42 | 22.96 | 19.59 | 46.18 | 36.04 | 39.63 | 73.12 | 80.96 | 77.01 | IC50 (hematin polymerization [3]; [6]): 313 µM; IC50 (hematin polymerization [3]; [7]): 310 µM; IC50 (hematin polymerization [3]; [8]): 337 µM; IC50 (hematin polymerization [4]): > 2500 µM
